Data: paper PMC10778626, “Efficacy of Novel Quaternary Ammonium and Phosphonium Salts Differing in Cation Type and Alkyl Chain Length against Antibiotic-Resistant Staphylococcus aureus” (International Journal of Molecular Sciences, 2023)
Read-outs that look alike come from different tables or passages of the source.

Key:
S. aureus CECT 976 = experiment: MIC/MBC by broth microdilution, S. aureus CECT 976; format: cell-based; conditions: Staphylococcus aureus
Experimental: The minimum inhibitory concentration (MIC) and minimum bactericidal concentration (MBC) values of all QHSs were determined by the broth microdilution method, according to the approved M7-A7 (aerobes) standards of the Clinical and Laboratory Standards Institute (CLSI) guidelines. Overnight cell cultures of S. aureus, in the exponential phase of growth, were adjusted to an optical density (OD) of 0.132 ± 0.02 (λ = 600 nm). Then, a volume of 180 µL of the cell suspension was added to sterile, flat, clear-bottomed polystyrene (PS) 96-well microtiter plates (VWR—Radnor, PA, USA), already containing 20 µL of each QHS under study at concentrations ranging from 0.0625 to 64 µg/mL. In the end, the volume of each compound never exceeded 10% (v/v) of the well volume. Microtiter plates were then incubated for 24 h at 37 °C under agitation (150 rpm; INCU-Line IL 150R incubator). Absorbance measurements were performed at the beginning (t = 0 h) and end (t = 24 h) of the incubation period using a microtiter plate absorbance reader (BMG LABTECH FLUOstar Omega). Bacterial suspensions with DMSO and without QHSs were used as negative controls. […] All tests were performed with six replicates and a minimum of three independent repeats.
Plates were incubated at 37 °C for 24 h, and growth was visually inspected. […] All tests were performed in triplicate, and with a minimum of three independent repeats.

[1] = Chromatographic hydrophobicity index (CHI) by UHPLC; format: physicochemical; conditions: for CHI: LC/UV at pH 2.6, calculated from retention time with the calibration line; for chromatographic logP: back-calculated from CHI at pH 2.6: CHI LogP = 0.047 × CHI + 0.36 × HBC − 1.10
Experimental: The chromatographic hydrophobicity index (CHI) values were determined using the retention times (tR) of the samples under study and of a mixture of standard compounds on a UHPLC NEXERA SERIES LC-40 with a Luna C18 (2) column of 150 × 4.6 mm, 5 μm (Phenomenex, Torrance, CA, USA). Stock solutions of the test compounds (10 mM) were prepared in dimethyl sulfoxide (DMSO, 99.9%; Carlo Erba) and diluted in acetonitrile/water (1:1) to obtain a final concentration of 500 μM. The mobile phase A was 1.0% (v/v) aqueous acetic acid solution (pH = 2.6), and the mobile phase B was acetonitrile. The following gradient programme was applied: 1–7 min 0–100% B, 7–17 min 100% B, 17–19 min 100–0% B, 1 mL/min flow; rt, injection volume 40 μL.
A calibration line was obtained using a mixture of the following compounds: benzimidazole, theophylline, paracetamol, caffeine, colchicine, carbamazepine, indole, propiophenone, butyrophenone, valerophenone, and heptanophenone (Table S1 and Figure S50, Supplementary Materials). The experimental CHI values of the compounds tested at pH 2.6 were then converted to the logarithm of octanol/water partition coefficient (CHI LogP) values using Equation (1). CHI LogP = 0.047 × CHI + 0.36 × HBC − 1.10 (1) where HBC is the hydrogen bond donor count.

[2] = CECT976, S. aureus CECT 976, broth microdilution, 24 h, 37 °C, read-out: MIC
[3] = CECT976, S. aureus CECT 976, broth microdilution, plated on PCA, read-out: MBC

SMILES: CCCCCC[P+](c1ccccc1)(c1ccccc1)c1ccccc1 [Compound 1a, Hexyltriphenylphosphonium bromide]
- MIC (S. aureus CECT 976; [2]): 8 µg/mL
- MBC (S. aureus CECT 976; [3]): > 64 µg/mL
- CHI [1]: 60.58
- chromatographic logP [1]: 1.75

SMILES: CCCCCCCC[P+](c1ccccc1)(c1ccccc1)c1ccccc1 [Compound 1b, Octyltriphenylphosphonium bromide]
- MIC (S. aureus CECT 976; [2]): 2 µg/mL
- MBC (S. aureus CECT 976; [3]): 16 µg/mL
- CHI [1]: 71.06
- chromatographic logP [1]: 2.24

SMILES: CCCCCCCCCC[P+](c1ccccc1)(c1ccccc1)c1ccccc1 [Compound 1c, Decyltriphenylphosphonium bromide]
- MIC (S. aureus CECT 976; [2]): 1 µg/mL
- MBC (S. aureus CECT 976; [3]): 8 µg/mL
- CHI [1]: 82.58
- chromatographic logP [1]: 2.78

SMILES: CCCCCCCCCCCC[P+](c1ccccc1)(c1ccccc1)c1ccccc1 [Compound 1d, Dodecyltriphenylphosphonium bromide]
- MBC (S. aureus CECT 976; CECT976): 16 µg/mL
- MIC (S. aureus CECT 976; CECT976, 24 h): 1 µg/mL
- CHI [1]: 94.50
- chromatographic logP [1]: 3.34

SMILES: CCCCCCCCCCCCCCCC[P+](c1ccccc1)(c1ccccc1)c1ccccc1 [Compound 1f, Hexadecyltriphenylphosphonium bromide]
- MIC (S. aureus CECT 976; [2]): 2 µg/mL
- MBC (S. aureus CECT 976; [3]): 16 µg/mL
- CHI [1]: 115.5
- chromatographic logP [1]: 4.33

SMILES: CCCCCCCCCCCCCCCCCC[P+](c1ccccc1)(c1ccccc1)c1ccccc1 [Compound 1g, Octadecyltriphenylphosphonium bromide]
- MIC (S. aureus CECT 976; [2]): 4 µg/mL
- MBC (S. aureus CECT 976; [3]): 64 µg/mL
- CHI [1]: 128.2
- chromatographic logP [1]: 4.93

SMILES: CCCCCC[n+]1ccn(C)c1.[Br-] [Compound 2a, 3-Hexyl-1-methyl-1H-imidazol-3-ium bromide]
- MBC (S. aureus CECT 976; CECT976): > 64 µg/mL
- MIC (S. aureus CECT 976; CECT976, 24 h): > 64 µg/mL
- CHI [1]: 29.35
- chromatographic logP [1]: 0.279

SMILES: CCCCCCCC[n+]1ccn(C)c1.[Br-] [Compound 2b, 1-Methyl-3-octyl-1H-imidazol-3-ium bromide]
- MIC (S. aureus CECT 976; [2]): > 64 µg/mL
- MBC (S. aureus CECT 976; [3]): > 64 µg/mL
- CHI [1]: 42.19
- chromatographic logP [1]: 0.883

SMILES: CCCCCCCCCC[n+]1ccn(C)c1.[Br-] [Compound 2c, 3-Decyl-1-methyl-1H-imidazol-3-ium bromide]
- MIC (S. aureus CECT 976; [2]): 16 µg/mL
- MBC (S. aureus CECT 976; [3]): > 64 µg/mL
- CHI [1]: 54.51
- chromatographic logP [1]: 1.46

SMILES: CCCCCCCCCCCC[n+]1ccn(C)c1.[Br-] [Compound 2d, 3-Dodecyl-1-methyl-1H-imidazol-3-ium bromide]
- MIC (S. aureus CECT 976; [2]): 1 µg/mL
- MBC (S. aureus CECT 976; [3]): 16 µg/mL
- CHI [1]: 67.25

SMILES: CCCCCCCCCCCCCCCC[n+]1ccn(C)c1.[Br-] [Compound 2f, 3-Hexadecyl-1-methyl-1H-imidazol-3-ium bromide]
- MIC (S. aureus CECT 976; [2]): 4 µg/mL
- MBC (S. aureus CECT 976; [3]): 8 µg/mL
- CHI [1]: 95.91
- chromatographic logP [1]: 3.41

SMILES: CCCCCCCCCCCCCCCCCC[n+]1ccn(C)c1.[Br-] [Compound 2g, 1-Methyl-3-octadecyl-1H-imidazol-3-ium bromide]
- MIC (S. aureus CECT 976; [2]): 8 µg/mL
- MBC (S. aureus CECT 976; [3]): 16 µg/mL
- CHI [1]: 109.2
- chromatographic logP [1]: 4.03

SMILES: CCCCCC[n+]1ccc2ccccc2c1.[Br-] [Compound 3a, 2-Hexylisoquinolin-2-ium bromide]
- MIC (S. aureus CECT 976; [2]): > 64 µg/mL
- MBC (S. aureus CECT 976; [3]): > 64 µg/mL
- CHI [1]: 37.81
- chromatographic logP [1]: 0.677

SMILES: CCCCCCCC[n+]1ccc2ccccc2c1.[Br-] [Compound 3b, 2-Octylisoquinolin-2-ium bromide]
- MBC (S. aureus CECT 976; CECT976): > 64 µg/mL
- MIC (S. aureus CECT 976; CECT976, 24 h): 64 µg/mL
- CHI [1]: 50.02
- chromatographic logP [1]: 1.25

SMILES: CCCCCCCCCC[n+]1ccc2ccccc2c1.[Br-] [Compound 3c, 2-Decylisoquinolin-2-ium bromide]
- MIC (S. aureus CECT 976; [2]): 16 µg/mL
- MBC (S. aureus CECT 976; [3]): 64 µg/mL
- CHI [1]: 61.62
- chromatographic logP [1]: 1.8

SMILES: CCCCCCCCCCCC[n+]1ccc2ccccc2c1.[Br-] [Compound 3d, 2-Dodecylisoquinolin-2-ium bromide]
- MIC (S. aureus CECT 976; [2]): 2 µg/mL
- MBC (S. aureus CECT 976; [3]): 16 µg/mL
- CHI [1]: 74.48
- chromatographic logP [1]: 2.4

SMILES: CCCCCCCCCCCCCCCC[n+]1ccc2ccccc2c1.[Br-] [Compound 3f, 2-Hexadecylisoquinolin-2-ium bromide]
- MIC (S. aureus CECT 976; [2]): 4 µg/mL
- MBC (S. aureus CECT 976; [3]): 8 µg/mL
- CHI [1]: 100.8
- chromatographic logP [1]: 3.64

SMILES: CCCCCCCCCCCCCCCCCC[n+]1ccc2ccccc2c1 [Compound 3g]
- MIC (S. aureus CECT 976; [2]): 8 µg/mL
- MBC (S. aureus CECT 976; [3]): 16 µg/mL
- CHI [1]: 113.1
- chromatographic logP [1]: 4.21

SMILES: CCCCCC[n+]1ccc(C)cc1.[Br-] [Compound 4a, 1-Hexyl-4-methylpyridin-1-ium bromide]
- MIC (S. aureus CECT 976; [2]): > 64 µg/mL
- MBC (S. aureus CECT 976; [3]): > 64 µg/mL
- CHI [1]: 31.08
- chromatographic logP [1]: 0.361

SMILES: CCCCCCCC[n+]1ccc(C)cc1.[Br-] [Compound 4b, 4-Methyl-1-octylpyridin-1-ium bromide]
- MIC (S. aureus CECT 976; [2]): > 64 µg/mL
- MBC (S. aureus CECT 976; [3]): > 64 µg/mL
- CHI [1]: 43.90
- chromatographic logP [1]: 0.963

SMILES: CCCCCCCCCC[n+]1ccc(C)cc1.[Br-] [Compound 4c, 1-Decyl-4-methylpyridin-1-ium bromide]
- MIC (S. aureus CECT 976; [2]): 32 µg/mL
- MBC (S. aureus CECT 976; [3]): > 64 µg/mL
- CHI [1]: 55.99
- chromatographic logP [1]: 1.53

SMILES: CCCCCCCCCCCC[n+]1ccc(C)cc1.[Br-] [Compound 4d, 1-Dodecyl-4-methylpyridin-1-ium bromide]
- MIC (S. aureus CECT 976; [2]): 2 µg/mL
- MBC (S. aureus CECT 976; [3]): 16 µg/mL
- CHI [1]: 68.96
- chromatographic logP [1]: 2.14

SMILES: CCCCCCCCCCCCCCCC[n+]1ccc(C)cc1.[Br-] [Compound 4f, 1-Hexadecyl-4-methylpyridin-1-ium bromide]
- MIC (S. aureus CECT 976; [2]): 4 µg/mL
- MBC (S. aureus CECT 976; [3]): 8 µg/mL
- CHI [1]: 96.77
- chromatographic logP [1]: 3.45

SMILES: CCCCCC[N+](CC)(CC)CC.[Br-] [Compound 7a, N,N,N-Triethylhexan-1-aminium bromide]
- MIC (S. aureus CECT 976; [2]): > 64 µg/mL
- MBC (S. aureus CECT 976; [3]): > 64 µg/mL

SMILES: CCCCCCCC[N+](CC)(CC)CC.[Br-] [Compound 7b, N,N,N-Triethyloctan-1-aminium bromide]
- MIC (S. aureus CECT 976; [2]): > 64 µg/mL
- MBC (S. aureus CECT 976; [3]): > 64 µg/mL

SMILES: CCCCCCCCCC[N+](CC)(CC)CC.[Br-] [Compound 7c, N,N,N-Triethyldecan-1-aminium bromide]
- MIC (S. aureus CECT 976; [2]): 64 µg/mL
- MBC (S. aureus CECT 976; [3]): > 64 µg/mL

SMILES: CCCCCCCCCCCC[N+](CC)(CC)CC.[Br-] [Compound 7d, N,N,N-Triethyldodecan-1-aminium bromide]
- MIC (S. aureus CECT 976; [2]): 4 µg/mL
- MBC (S. aureus CECT 976; [3]): 16 µg/mL

SMILES: CCCCCCCCCCCCCCCC[N+](CC)(CC)CC.[Br-] [Compound 7f, N,N,N-Triethylhexadecan-1-aminium bromide]
- MIC (S. aureus CECT 976; [2]): 64 µg/mL
- MBC (S. aureus CECT 976; [3]): 64 µg/mL

SMILES: CCCCCCCCCCCCCCCCCC[N+](CC)(CC)CC.[Br-] [Compound 7g, N,N,N-Triethyloctadecan-1-aminium bromide]
- MIC (S. aureus CECT 976; [2]): 16 µg/mL
- MBC (S. aureus CECT 976; [3]): 16 µg/mL
